Experimental data as given in PubChem BioAssay AID1996.
≈ marks a conversion by molar mass, not a printed value.

Settings: buffer; pH 7.4; 200.0 µM

Row | SMILES | solubility kinetic
1 | COc1ccc(NC(=O)CCC(=O)N/N=C/c2cccnc2)cc1 | > 49 µg/mL
2 | COc1ccc2[nH]c(C(=O)NCCc3ccccc3)cc2c1 | 1 µg/mL (≈ 3.4 µM)
3 | CN(C(=O)c1ccc(Br)o1)C1(C)CCS(=O)(=O)C1 (centres undefined) | > 50.4 µg/mL
4 | CCOC(=O)CCCCCN1C(=O)c2cccc3cccc(c23)C1=O | 6.4 µg/mL (≈ 18.9 µM)
5 | COc1ccc(C2C(C#N)=C(C)NC(C)=C2C#N)c(OC)c1 | 4.6 µg/mL (≈ 15.6 µM)
6 | C/C=C/c1ccc(OCc2cc(=O)n3cc(C)ccc3n2)c(OC)c1 | 9.1 µg/mL (≈ 27.1 µM)
7 | Cc1cc(C)cc(NC(=O)NC2CCCCCCC2)c1 | 1 µg/mL (≈ 3.64 µM)
8 | Cc1cc(=O)oc2cc(OCCC[n+]3ccccc3)ccc12.[Br-] | 53.6 µg/mL
9 | COc1cccc(NC(=S)NC(=O)c2cccnc2)c1 | 40 µg/mL (≈ 139 µM)
10 | N/C(=N\OCC(=O)Nc1ccc(F)c(Cl)c1)c1ccccc1 | > 48.3 µg/mL
11 | NC(=S)COc1ccccc1 | 18.3 µg/mL (≈ 109 µM)
12 | O=C1CN(C(=O)CNCc2ccc(Cl)cc2)c2ccccc2N1 | 39.7 µg/mL (≈ 120 µM)
13 | CCN(C(=O)COC(=O)CNC(=O)c1ccc(Cl)cc1Cl)c1c(N)n(Cc2ccccc2)c(=O)[nH]c1=O | > 82.3 µg/mL
14 | N#Cc1ccc(S(=O)(=O)NC2CCCCNC2=O)cc1 (centres undefined) | > 44 µg/mL
15 | COc1cc2c(cc1OC)CN(CC(=O)Nc1cccc([N+](=O)[O-])c1)CC2 | 14.9 µg/mL (≈ 40.1 µM)
16 | CN(C)/C=C1\Oc2ccc3ccccc3c2C1=O | < 0.5 µg/mL
17 | COc1ccc(CNC(=O)c2cc(S(=O)(=O)N3CCCCC3)ccc2Cl)cc1OC | 3.1 µg/mL (≈ 6.84 µM)
18 | CC(C)OC(=O)/C(=C\c1ccccc1)NC(=O)c1ccccc1 | > 46.4 µg/mL
19 | C=CCNC(=O)c1cc2cccc(OC)c2oc1=O | > 38.9 µg/mL
20 | CC(=O)NC(C)Cc1cn(Cc2ccccc2)c2ccccc12 (centres undefined) | > 46 µg/mL

Row | SMILES | solubility kinetic
21 | O=c1[nH]c2ccc(S(=O)(=O)Nc3ccccc3O)cc2[nH]1 | > 45.8 µg/mL
22 | S=C(NCCc1ccc(Cl)cc1)NC1CCCCC1 | 4 µg/mL (≈ 13.5 µM)
23 | Cc1ccc(NC(=O)CO/N=C(\N)c2ccccc2)cc1C | 5 µg/mL (≈ 16.8 µM)
24 | CC(Nc1nc(-c2ccccc2O)nc2ccccc12)c1ccccc1 (centres undefined) | < 0.2 µg/mL
25 | Cc1c(NC(=O)Nc2ccc(F)cc2F)c(=O)n(-c2ccccc2)n1C | > 53.8 µg/mL
26 | Cc1cccc(C(=O)NCCNC(=O)c2ccccn2)c1 | > 42.5 µg/mL
27 | Fc1ccc(OCc2cc(-c3ccccc3)no2)cc1 | < 0.6 µg/mL
28 | O=C(Nc1cc(C(F)(F)F)ccc1N1CCOCC1)c1ccncc1 | > 52.7 µg/mL
29 | Cc1nc2ccccc2c2c(N)c3ccccc3n12 | 16.4 µg/mL (≈ 66.3 µM)
30 | Cc1ccc(C(=O)NC(C)c2ccc(S(N)(=O)=O)cc2)s1 (centres undefined) | > 48.7 µg/mL
31 | Cc1cc(C)nc(SCC(=O)N/N=C/c2cccnc2)n1 | > 45.2 µg/mL
32 | N#Cc1ccc(OCC(=O)NC2CCCCCC2)cc1 | > 40.9 µg/mL
33 | O=C(CCc1ccc(S(=O)(=O)N2CCOCC2)cc1)OCC(=O)c1ccc(Br)cc1 | 6.7 µg/mL (≈ 13.5 µM)
34 | CC(=O)Nc1ccc(OCC(=O)NCc2ccc(C)cc2)cc1 | > 46.9 µg/mL
35 | O=C(c1cc2ccccc2cc1O)N1CCCC(C(F)(F)F)C1 (centres undefined) | > 48.5 µg/mL
36 | COc1cccc(C2CC(=O)Nc3cc(OC)c(OC)cc32)c1 (centres undefined) | 20.3 µg/mL (≈ 64.8 µM)
37 | CCCSC1=C(C#N)C(c2cccs2)CC(=O)N1 (centres undefined) | 33.7 µg/mL (≈ 121 µM)
38 | CSc1nc(N2CCN(C)CC2)c2c(c1C#N)CC(C)(C)OC2 | > 49.9 µg/mL
39 | CC(C(O)c1ccc(O)cc1)N1CCC(Cc2ccccc2)CC1.O=C(O)C(O)C(O)C(=O)O (centres undefined) | > 71.3 µg/mL
40 | CN(C)CCCOC(=O)c1sc2ccccc2c1Cl.Cl | > 50.1 µg/mL

Row | SMILES | solubility kinetic
41 | COC(=O)C(C)N=Cc1ccccc1 (centres undefined) | 21 µg/mL (≈ 110 µM)
42 | COc1cc(Nc2ncnc(N)n2)cc(OC)c1 | > 37.1 µg/mL
43 | COC1=C(N)C(=O)c2nc(-c3nc(C(=O)O)c(C)c(-c4ccc(OC)c(OC)c4O)c3N)ccc2C1=O | 74.9 µg/mL (≈ 148 µM)
44 | CCN(CC)C(=O)c1ccccc1NC(=O)c1ccccc1 | > 44.5 µg/mL
45 | O=Cc1c[nH]c2ccc(OCc3ccccc3)cc12 | < 0.5 µg/mL
46 | Clc1ccc(CN2CCCCCC2)cc1.O=C(O)C(=O)O | 24.9 µg/mL
47 | CN1CCCN(C(=O)c2cc3c(s2)CCCC3)CC1 | 39.7 µg/mL (≈ 143 µM)
48 | O=C(COC(=O)[C@H](Cc1ccccc1)NC(=O)c1ccco1)Nc1ccccc1OC(F)F | 64 µg/mL (≈ 140 µM)
49 | CC(C)(C)c1cc(NS(=O)(=O)c2cccs2)no1 | 30.8 µg/mL (≈ 108 µM)
50 | O=C(O)c1cc2cc(Oc3ccccc3)ccc2[nH]1 | > 38 µg/mL
51 | CNc1cc(C)c(C#N)c2nc3ccccc3n12 | 2.6 µg/mL (≈ 11 µM)
52 | CC(C)(C)c1ccc(Oc2ccc(NC(=O)CCCC(=O)O)cn2)cc1 | > 53.5 µg/mL
53 | CC1(C)CC(NCc2ccncc2)CC(C)(C)N1 | 32.2 µg/mL (≈ 130 µM)
54 | Cc1cccn2c(=O)c(C=O)c(N3CCC4(CC3)OCCO4)nc12 | > 49.4 µg/mL
55 | Cc1ccc(CNC(=O)c2cc(=O)c3ccccc3o2)cc1 | 3 µg/mL (≈ 10.2 µM)
56 | CC(=O)Nc1ccc(S(=O)(=O)N(C)CC(=O)N2CCN(C(=O)c3ccco3)CC2)cc1 | > 67.3 µg/mL
57 | O=C(O)c1cc(-n2cccc2)ccc1N1CCOCC1 | > 40.8 µg/mL
58 | O=C(O)C(=O)O.c1ccc2cc(OCCCn3ccnc3)ccc2c1 | > 51.4 µg/mL
59 | O=S(=O)(Nc1ccc(N2CCCCC2)cc1)c1ccc(F)cc1 | 9.5 µg/mL (≈ 28.4 µM)
